# Measurements taken from paper PMC6353801, “Enhanced Anti-diabetic Effect of Berberine Combined With Timosaponin B2 in Goto-Kakizaki Rats, Associated With Increased Variety and Exposure of Effective Substances Through Intestinal Absorption” (Frontiers in Pharmacology, 2019).
# Assay: Transport in Caco-2 cells
# Format: in vitro ADME, human
# Conditions: human
# Description: The culture medium was changed every other day for the first 7 days and then daily for the next 14 days. […] Prior to the transport experiments, the cell monolayers were washed three times with HBSS at 37°C. […] At the same time, the corresponding opposite side was filled with medium as the receiving chamber. After incubation for 30, 60, 90, and 120 min, 250-μl aliquots of the medium was taken from the receiving chamber at each time point, and prepared for analysis by HPLC–MS/MS. […] where (ΔQ/Δt) is the linear slope of the drug concentration in the receptor chamber over time, A represents the surface area of the membrane (1.12 cm^2), and C0 is the initial concentration of drug in the donor chamber. The efflux ratio (ERpermeability) for BL to AP and AP to BL transport was defined by the following equation: […] where Papp (BL–AP) and Papp (AP–BL) are the apparent permeability of drugs from the basolateral (BL) to apical (AP) and AP to BL sides of the monolayer, respectively.
# [1] = Caco-2, BBR 10 μM in presence of TB-2 (5 μM), n = 3
compound,measurement,setting,value
"COc1ccc2cc3[n+](cc2c1OC)CCc1cc2c(cc1-3)OCO2 [BBR, berberine]",efflux ratio at 10 μM,"Caco-2, Caco-2, BBR 10 μM in presence of TB-2 (5 μM), read-out: ERpermeability (efflux ratio)",31.1
same,Papp A→B at 10 μM,[1],0.048 ± 0.014 ×10⁻⁶ cm/s
same,Papp B→A at 10 μM,[1],1.5 ± 0.499 ×10⁻⁶ cm/s
